Test results as given in patent US20250145606A1 (Arcus Biosciences, Inc., priority 2023, published 2025).

Columns and labels:
Settings in all cases: biochemical, HTRF KinEASE-TK
CSF1R = CSF1R (Homo sapiens (Human), UniProt P07333); assay: Inhibition of CSF1R kinase activity (HTRF KinEASE-TK)
Method: (§1) Inhibition of c-Kit, PDGFRα, PDGFRβ, CSFIR and FLT3 Kinase Activity
(§2) Compounds were evaluated to determine the potency with which they inhibit the kinase activity of the following panel of tyrosine kinases: c-Kit (SignalChem, Product #: K06-11BG), PDGFRα (SignalChem, Product #: P12-18G), PDGFRβ (SignalChem, Product #: P13-11G), CSFIR (SignalChem, Product #: C74-11G) and FLT3 (Invitrogen, Product #: PR4666C). Activity was determined as a function of phosphorylated biotinylated TK peptide generated by the transfer of phosphate from ATP as measured by the use of the HTRF KinEASE-TK assay kit (Cisbio, Product #: 62TKOPEJ). Levels of phosphorylated biotinylated TK peptide (Part 61TKOBLC of KinEASE assay kit) are quantified by its capture by phosphor-TK-Antibody-Cryptate (Part of KinEASE assay kit) and XL665-labeled Streptavidin (Part 610SAXLG of KinEASE assay kit) followed by measurement of Time-Resolved Fluorescence Resonance Energy Transfer (TR-FRET) signal. On the day of the assay, compounds were solubilized in DMSO and dispensed into a 384-well white Opti-plate (PerkinElmer, catalog #6007290) to generate a 22 point 1:2 titration. Enzyme solution was prepared for each of the tyrosine kinases in 50 mM HEPES, pH 7.4, 5 mM MgCl2 for c-Kit or 10 mM MgCl2 for FLT3, CSFIR, PDGFRa and PDGFRβ, 2 mM MnCl2, 0.01% Brij-35 and 0.01% BSA. Working enzyme concentrations were prepared for c-Kit at 2 nM (2×), PDGFRa and PDGFRß at 10 nM (2×), CSFIR at 2 nM (2×) and FLT3 at 0.4 nM (2×). Five microliters of enzyme dilution of each tyrosine kinase were added to their respective 384-well white Opti-plate pre-dispensed with compound and allowed to incubate for 1 h at rt. Utilizing the same enzyme buffer recipe, 2x substrate mixes were prepared for each enzyme as follows: For c-Kit, 1.6 μM (2×) TK substrate and 16 μM (2×) ATP (Promega, catalog #V915). For PDGFRα, 3.2 μM TK substrate and 1 μM ATP. For PDGFRβ, 3.2 μM TK substrate and 40 μM ATP. For CSFIR, […] TK substrate and 20 μM ATP. For FLT3, 3.2 μM TK substrate and 100 μM ATP. Reactions were initiated by addition of 5 μL of the respective 2x substrate mix to each well of the plates containing the respective tyrosine kinase enzymes and were allowed to proceed for 120 minutes at rt, except for FLT3, the reaction time is 45 min. Following the reaction, 10 μL of detection mix consisting of 0.2 μM (2×) of Streptavidin-XL665 and 2 μM (2×) of TK-Antibody-Cryptate prepared in detection buffer (Part 62SDBRDF of KinEASE assay kit) was added and then allowed to incubate for 60 min. The TR-FRET signal was quantified by measuring the ratio of emission at 665 nm to 620 nm after excitation at 320 nm by reading on a PerkinElmer Envision multimode reader. Compound potencies (IC50 values) were determined using a standard 4-parameter non-linear regression fit.

PDGFRβ = PDGFRβ (Homo sapiens (Human), UniProt P09619); assay: Inhibition of PDGFRβ kinase activity (HTRF KinEASE-TK)
Method: as §1, §2

c-Kit = c-Kit (Homo sapiens (Human), UniProt P10721); assay: Inhibition of c-Kit kinase activity (HTRF KinEASE-TK); format: biochemical
Method: as §1, §2

PDGFRα = PDGFRα (Homo sapiens (Human), UniProt P16234); assay: Inhibition of PDGFRα kinase activity (HTRF KinEASE-TK)
Method: as §1, §2

CSF1R, sequence (P07333 20-972): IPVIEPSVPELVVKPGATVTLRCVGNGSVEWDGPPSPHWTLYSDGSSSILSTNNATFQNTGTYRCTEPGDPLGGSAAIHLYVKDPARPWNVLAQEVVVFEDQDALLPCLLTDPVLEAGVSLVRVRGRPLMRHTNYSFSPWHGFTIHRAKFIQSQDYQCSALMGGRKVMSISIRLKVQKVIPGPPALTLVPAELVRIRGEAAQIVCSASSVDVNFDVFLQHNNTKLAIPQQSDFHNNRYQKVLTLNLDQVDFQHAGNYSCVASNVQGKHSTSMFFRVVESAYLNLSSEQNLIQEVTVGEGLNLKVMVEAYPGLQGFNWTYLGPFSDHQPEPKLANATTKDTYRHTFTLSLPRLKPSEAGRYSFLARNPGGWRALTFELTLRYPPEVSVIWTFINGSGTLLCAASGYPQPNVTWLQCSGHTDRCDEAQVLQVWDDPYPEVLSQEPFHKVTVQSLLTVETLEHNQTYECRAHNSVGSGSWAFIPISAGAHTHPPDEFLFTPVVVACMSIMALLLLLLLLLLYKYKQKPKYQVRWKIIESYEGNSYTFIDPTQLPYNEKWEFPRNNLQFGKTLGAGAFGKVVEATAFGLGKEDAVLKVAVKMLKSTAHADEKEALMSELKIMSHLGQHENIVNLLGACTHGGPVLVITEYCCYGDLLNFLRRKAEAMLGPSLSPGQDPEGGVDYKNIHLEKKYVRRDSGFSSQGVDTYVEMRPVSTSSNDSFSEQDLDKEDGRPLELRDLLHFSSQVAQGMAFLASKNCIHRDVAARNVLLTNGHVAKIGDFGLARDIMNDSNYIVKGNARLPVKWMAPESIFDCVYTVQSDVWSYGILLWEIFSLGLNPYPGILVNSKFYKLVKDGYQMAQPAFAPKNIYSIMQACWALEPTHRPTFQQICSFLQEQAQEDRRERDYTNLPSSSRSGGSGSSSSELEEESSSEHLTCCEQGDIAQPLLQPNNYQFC
PDGFRα, sequence (P16234 24-1089): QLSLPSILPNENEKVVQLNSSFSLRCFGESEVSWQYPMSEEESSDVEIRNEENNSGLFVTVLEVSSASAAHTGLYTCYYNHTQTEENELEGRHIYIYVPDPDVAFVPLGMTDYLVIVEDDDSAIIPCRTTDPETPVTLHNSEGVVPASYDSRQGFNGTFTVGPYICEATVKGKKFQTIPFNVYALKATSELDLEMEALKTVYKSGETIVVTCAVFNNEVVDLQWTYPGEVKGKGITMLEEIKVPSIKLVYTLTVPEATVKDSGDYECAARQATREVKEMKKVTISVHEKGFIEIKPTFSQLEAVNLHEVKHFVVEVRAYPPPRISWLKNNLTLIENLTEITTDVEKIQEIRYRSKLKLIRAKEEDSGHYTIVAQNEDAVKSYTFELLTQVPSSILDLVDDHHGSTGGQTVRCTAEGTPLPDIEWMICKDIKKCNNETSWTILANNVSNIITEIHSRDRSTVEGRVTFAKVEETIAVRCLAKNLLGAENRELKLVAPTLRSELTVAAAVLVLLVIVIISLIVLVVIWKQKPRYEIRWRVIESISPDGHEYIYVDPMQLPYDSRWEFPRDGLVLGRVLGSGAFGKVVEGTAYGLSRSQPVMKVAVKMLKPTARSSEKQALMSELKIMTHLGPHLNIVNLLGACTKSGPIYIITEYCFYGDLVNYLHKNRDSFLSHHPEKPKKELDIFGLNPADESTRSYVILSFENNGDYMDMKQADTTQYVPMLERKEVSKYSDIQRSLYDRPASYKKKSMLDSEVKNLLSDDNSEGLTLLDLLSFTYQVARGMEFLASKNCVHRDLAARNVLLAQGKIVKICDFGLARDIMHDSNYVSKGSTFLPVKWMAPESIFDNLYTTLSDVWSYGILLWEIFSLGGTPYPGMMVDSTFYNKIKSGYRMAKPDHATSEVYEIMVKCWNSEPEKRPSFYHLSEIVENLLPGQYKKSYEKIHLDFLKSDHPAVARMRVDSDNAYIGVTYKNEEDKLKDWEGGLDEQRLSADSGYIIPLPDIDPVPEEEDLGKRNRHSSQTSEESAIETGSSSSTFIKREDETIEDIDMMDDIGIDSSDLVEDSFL
c-Kit, sequence (P10721 26-976): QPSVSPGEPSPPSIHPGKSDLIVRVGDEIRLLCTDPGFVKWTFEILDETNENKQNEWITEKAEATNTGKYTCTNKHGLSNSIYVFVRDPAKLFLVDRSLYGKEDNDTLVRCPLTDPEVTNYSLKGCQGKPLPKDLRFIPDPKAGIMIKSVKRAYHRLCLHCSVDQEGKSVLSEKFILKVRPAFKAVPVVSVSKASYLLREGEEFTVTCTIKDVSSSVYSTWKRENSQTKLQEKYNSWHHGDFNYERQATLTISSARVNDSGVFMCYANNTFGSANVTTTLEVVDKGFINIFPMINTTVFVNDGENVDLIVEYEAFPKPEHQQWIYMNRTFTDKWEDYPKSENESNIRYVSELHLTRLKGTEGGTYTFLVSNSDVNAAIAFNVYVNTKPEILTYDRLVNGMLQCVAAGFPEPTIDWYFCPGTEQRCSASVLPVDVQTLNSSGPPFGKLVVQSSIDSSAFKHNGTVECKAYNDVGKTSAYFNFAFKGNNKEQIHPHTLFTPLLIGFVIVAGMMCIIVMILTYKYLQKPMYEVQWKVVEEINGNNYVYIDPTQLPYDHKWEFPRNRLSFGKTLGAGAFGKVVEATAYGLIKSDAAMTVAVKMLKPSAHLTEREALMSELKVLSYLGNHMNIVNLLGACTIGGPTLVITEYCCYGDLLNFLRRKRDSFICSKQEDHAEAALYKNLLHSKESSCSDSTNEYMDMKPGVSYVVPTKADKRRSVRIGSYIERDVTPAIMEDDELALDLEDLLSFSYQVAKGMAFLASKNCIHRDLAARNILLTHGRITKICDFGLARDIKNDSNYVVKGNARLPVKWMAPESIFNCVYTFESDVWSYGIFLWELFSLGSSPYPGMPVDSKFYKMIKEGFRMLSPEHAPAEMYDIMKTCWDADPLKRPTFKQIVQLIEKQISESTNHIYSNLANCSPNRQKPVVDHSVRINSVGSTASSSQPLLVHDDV
PDGFRβ, sequence (P09619 33-1106): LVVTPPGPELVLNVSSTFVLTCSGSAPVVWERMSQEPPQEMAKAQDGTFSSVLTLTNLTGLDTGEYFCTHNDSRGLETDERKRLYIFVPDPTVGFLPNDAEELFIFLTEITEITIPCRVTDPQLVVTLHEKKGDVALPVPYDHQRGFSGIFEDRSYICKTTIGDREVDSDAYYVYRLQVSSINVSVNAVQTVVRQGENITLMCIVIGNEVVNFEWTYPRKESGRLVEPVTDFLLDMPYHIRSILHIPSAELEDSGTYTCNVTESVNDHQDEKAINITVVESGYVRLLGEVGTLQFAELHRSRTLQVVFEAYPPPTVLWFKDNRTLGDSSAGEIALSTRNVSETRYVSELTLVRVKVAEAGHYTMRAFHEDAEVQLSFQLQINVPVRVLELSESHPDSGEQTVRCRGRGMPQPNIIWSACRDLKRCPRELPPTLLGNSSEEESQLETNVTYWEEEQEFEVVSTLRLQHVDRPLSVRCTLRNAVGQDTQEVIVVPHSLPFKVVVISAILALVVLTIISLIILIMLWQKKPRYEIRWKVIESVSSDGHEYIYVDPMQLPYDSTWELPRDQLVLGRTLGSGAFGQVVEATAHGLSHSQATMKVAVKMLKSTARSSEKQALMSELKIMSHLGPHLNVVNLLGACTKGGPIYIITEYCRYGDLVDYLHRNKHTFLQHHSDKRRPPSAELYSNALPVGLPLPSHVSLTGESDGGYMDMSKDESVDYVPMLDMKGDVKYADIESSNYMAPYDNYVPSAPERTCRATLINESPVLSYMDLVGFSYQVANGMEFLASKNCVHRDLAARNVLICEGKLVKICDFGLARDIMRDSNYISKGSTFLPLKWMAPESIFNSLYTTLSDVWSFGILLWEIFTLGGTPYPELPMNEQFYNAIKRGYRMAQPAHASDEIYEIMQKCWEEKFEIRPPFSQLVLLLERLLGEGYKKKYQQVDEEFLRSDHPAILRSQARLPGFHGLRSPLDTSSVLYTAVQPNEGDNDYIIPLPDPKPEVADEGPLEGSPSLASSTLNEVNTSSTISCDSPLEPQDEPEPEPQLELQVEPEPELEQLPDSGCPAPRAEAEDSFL

| SMILES | IC50 (CSF1R) [µM] | IC50 (PDGFRβ) [µM] | IC50 (c-Kit) [µM] | IC50 (PDGFRα) [µM] |
| --- | --- | --- | --- | --- |
| Cc1ncc(C(=O)Nc2cc(C(=O)Nc3ccc(OCC(F)(F)F)cn3)c(F)cc2C)s1 [Example 41, N-[4-fluoro-2-methyl-5-[[5-(2,2,2-trifluoroethoxy)pyridin-2-yl]carbamoyl]phenyl]-2-methyl-1,3-thiazole-5-carboxamide] | > 1 | > 1 | < 0.1 | > 1 |
| Nc1ncc(C(=O)Nc2cc(C(=O)NC3CC3)c(F)cc2Cl)s1 [Example 200, 2-Amino-N-[2-chloro-5-(cyclopropylcarbamoyl)-4-fluorophenyl]-1,3-thiazole-5-carboxamide] | > 1 | > 1 | < 0.1 | 0.1 to 1 |
| Cc1cc(F)c(C(=O)Nc2cc3n(n2)CCOC3)cc1NC(=O)c1cnc(N)s1 [Example 182, 2-Amino-N-[5-(6,7-dihydro-4H-pyrazolo [5,1-c][1,4]oxazin-2-ylcarbamoyl)-4-fluoro-2-methylphenyl]-1,3-thiazole-5-carboxamide] | > 1 | 0.1 to 1 | < 0.1 | > 1 |
| Cc1cc(F)c(C(=O)Nc2ccc(OC3CC3)cn2)cc1NC(=O)c1cnc(NCC(F)F)s1 [Example 235, N-[5-[(5-cyclopropyloxypyridin-2-yl)carbamoyl]-4-fluoro-2-methylphenyl]-2-(2,2-difluoroethylamino)-1,3-thiazole-5-carboxamide] | > 1 | 0.1 to 1 | < 0.1 | > 1 |
| Cc1cc(F)c(NC(=O)c2cnc(N)s2)cc1C(=O)Nc1ccc(OC2CC2)cn1 [Example 223, 2-Amino-N-[5-[(5-cyclopropyloxypyridin-2-yl)carbamoyl]-2-fluoro-4-methylphenyl]-1,3-thiazole-5-carboxamide] | > 1 | > 1 | 0.1 to 1 | > 1 |
| Cc1cc(F)c(C(=O)Nc2ccc(OC3CC3)cn2)cc1NC(=O)c1cncs1 [Example 169, N-[5-[(5-Cyclopropyloxypyridin-2-yl)carbamoyl]-4-fluoro-2-methylphenyl]-1,3-thiazole-5-carboxamide] | > 1 | > 1 | < 0.1 | > 1 |
| Cc1cc(F)c(C(=O)Nc2ccc(CN3CCOCC3)cn2)cc1NC(=O)c1cnc(N)s1 [Example 248, 2-Amino-N-[4-fluoro-2-methyl-5-[[5-(morpholin-4-ylmethyl)pyridin-2-yl]carbamoyl]phenyl]-1,3-thiazole-5-carboxamide] | > 1 | > 1 | < 0.1 | > 1 |
| Cc1cc(F)c(C(=O)Nc2ccc3c(c2)C(F)(F)C(=O)N3)cc1NC(=O)c1cnc(N)s1 [Example 188, 2-Amino-N-[5-[(3,3-difluoro-2-oxo-1H-indol-5-yl)carbamoyl]-4-fluoro-2-methylphenyl]-1,3-thiazole-5-carboxamide] | < 0.1 | < 0.1 | < 0.1 | < 0.1 |
| Cc1cc(F)c(C(=O)Nc2ccc(OC3CC3)cn2)cc1NC(=O)c1cnc(NC(=O)[C@@H]2CCOC2)s1 [Example 107, N-[5-[(5-cyclopropyloxypyridin-2-yl)carbamoyl]-4-fluoro-2-methylphenyl]-2-[[(3R)-oxolane-3-carbonyl]amino]-1,3-thiazole-5-carboxamide] | > 1 | 0.1 to 1 | < 0.1 | > 1 |
| Cc1cc(F)c(C(=O)Nc2ccc(C(C)(O)C(F)(F)F)cn2)cc1NC(=O)c1cnc(N)s1 (stereo not drawn) [Example 111, 2-Amino-N-[4-fluoro-2-methyl-5-[[5-(1,1,1-trifluoro-2-hydroxypropan-2-yl)pyridin-2-yl]carbamoyl]phenyl]-1,3-thiazole-5-carboxamide] | < 0.1 | < 0.1 | < 0.1 | < 0.1 |
| Cc1ncc(C(=O)Nc2cc(C(=O)Nc3cnc(C4CC4)nc3)c(F)cc2C)s1 [Example 42, N-[5-[(2-cyclopropylpyrimidin-5-yl)carbamoyl]-4-fluoro-2-methylphenyl]-2-methyl-1,3-thiazole-5-carboxamide] | > 1 | > 1 | < 0.1 | > 1 |
| Cc1cc(F)c(C(=O)Nc2nc(C)n(C)n2)cc1NC(=O)c1cnc(N)s1 [Example 173, 2-Amino-N-[5-[(1,5-dimethyl-1,2,4-triazol-3-yl)carbamoyl]-4-fluoro-2-methylphenyl]-1,3-thiazole-5-carboxamide] | > 1 | > 1 | 0.1 to 1 | > 1 |
| Cc1cc(F)c(C(=O)Nc2ccc(C(F)C(F)(F)F)cn2)cc1NC(=O)c1cnc(N)s1 (stereo not drawn) [Example 225, 2-Amino-N-[4-fluoro-2-methyl-5-[[5-(1,2,2,2-tetrafluoroethyl)pyridin-2-yl]carbamoyl]phenyl]-1,3-thiazole-5-carboxamide] | 0.1 to 1 | < 0.1 | < 0.1 | 0.1 to 1 |
| Cc1cc(F)c(C(=O)Nc2cccc(F)c2)cc1NC(=O)c1cnc(N)s1 [Example 232, 2-Amino-N-[4-fluoro-5-[(3-fluorophenyl)carbamoyl]-2-methylphenyl]-1,3-thiazole-5-carboxamide] | 0.1 to 1 | > 1 | < 0.1 | > 1 |
| Cc1ncc(C(=O)Nc2cc(C(=O)Nc3ccc(C(F)(F)F)nc3)c(F)cc2C)s1 [Example 26, N-[4-Fluoro-2-methyl-5-[[6-(trifluoromethyl)pyridin-3-yl]carbamoyl]phenyl]-2-methyl-1,3-thiazole-5-carboxamide] | > 1 | > 1 | < 0.1 | > 1 |
| COCc1ccc(NC(=O)c2cc(NC(=O)c3cnc(C)s3)c(Cl)cc2F)nc1 [Example 47, N-[2-chloro-4-fluoro-5-[[5-(methoxymethyl)pyridin-2-yl]carbamoyl]phenyl]-2-methyl-1,3-thiazole-5-carboxamide] | > 1 | > 1 | 0.1 to 1 | > 1 |
| Cc1cc(F)c(C(=O)Nc2ncn(C)n2)cc1NC(=O)c1cnc(N)s1 [Example 174, 2-Amino-N-[4-fluoro-2-methyl-5-[(1-methyl-1,2,4-triazol-3-yl)carbamoyl]phenyl]-1,3-thiazole-5-carboxamide] | > 1 | > 1 | 0.1 to 1 | > 1 |
| Cc1cc(F)c(C(=O)NC2CN(C(=O)C3CC3)C2)cc1NC(=O)c1cnc(N)s1 [Example 121, 2-Amino-N-[5-[[1-(cyclopropanecarbonyl)azetidin-3-yl]carbamoyl]-4-fluoro-2-methylphenyl]-1,3-thiazole-5-carboxamide] | > 1 | > 1 | < 0.1 | > 1 |
| Cc1cc(F)c(C(=O)NCCc2ccc(F)cc2)cc1NC(=O)c1cnc(N)s1 [Example 165] | 0.1 to 1 | < 0.1 | < 0.1 | 0.1 to 1 |
| Cc1cc(F)c(C(=O)NC2CN(c3ncccn3)C2)cc1NC(=O)c1cnc(N)s1 [Example 125, 2-Amino-N-[4-fluoro-2-methyl-5-[(1-pyrimidin-2-ylazetidin-3-yl)carbamoyl]phenyl]-1,3-thiazole-5-carboxamide] | > 1 | > 1 | < 0.1 | > 1 |
| Cc1cc(F)c(C(=O)Nc2ccc(S(C)(=O)=O)cn2)cc1NC(=O)c1cnc(N)s1 [Example 116, 2-Amino-N-[4-fluoro-2-methyl-5-[(5-methylsulfonylpyridin-2-yl)carbamoyl]phenyl]-1,3-thiazole-5-carboxamide] | 0.1 to 1 | 0.1 to 1 | < 0.1 | > 1 |
